# Assay results published in patent US20210205292A1, “INHIBITORS OF CREB-CBP INTERACTION FOR TREATMENT OF LEUKEMIA” (The Board of Trustees of the Leland Stanford Junior …, priority 2016, published 2021).
# pIC50: −log10 of the molar value.
# Key:
# [1] = test system: CREB target genes in KG-1 and HL-60 cells; experiment: RT-PCR of target genes in KG-1 and HL-60 cells; format: cell-based
# Experimental: Total RNA was isolated using the Aurum RNA Isolation Mini Kit, and the iScript cDNA Synthesis Kit was used to prepare samples for qPCR (Bio-Rad). PCR was performed on the CFX384 Real-Time System (Bio-Rad) and results were analyzed using the Livak method. For analysis of RNA-seq data as target genes of known transcription factors, a curated list of all human target genes was extracted from the TRANSFAC Pro database.
# To assess for potential ‘off-target’ effects of Compound A, the RNA-Seq gene expression profiles of other transcription factors that bind CBP, including Rel, RelA, RelB, Foxo3, Foxo1 and Myb, were analyzed. […] PLoS One. 2011; 6(12):e28712) (FIG. 9, panel E).
# HL-60 cells [2] = experiment: HL-60 viability, combination of Compound A with kinase inhibitors; format: cell-based, human; conditions: 48 hours
# KG-1 cells = experiment: Viable cell count of engineered KG-1 cell lines (CREB KD, GFP, CREB OE, CBP OE); format: cell-based; conditions: Homo sapiens, KG-1, 48 h, 48 hours
# Experimental: (§1) AML cell lines were purchased from ATCC and maintained with IMDM (Gibco) supplemented with 10% FBS (Fisher Scientific) and 1% PSG (Gibco). Cells were plated at a density of 2-4×10^5 cells/ml, and treated with various doses of Compound A in 0.1% DMSO or 0.1% DMSO alone. Cell counts and viability were determined using the Vi-CELL XR Cell Viability Analyzer (Beckman Coulter). HL-60 and KG-1 cells overexpressing CREB or CBP were generated using lentiviral gene delivery with subsequent puromycin selection and FACs sorting for GFP. CREB knockdown was achieved by infecting cells with a lentivirus expressing the shRNA sequence 5′-[…]-3′ (SEQ ID NO:). For chemotherapy combination experiments, combination index values were calculated using median effects analysis on Calcusyn software. Human patient bone marrow samples were cultured in DMEM plus 20% FBS and 1×PSG, supplemented with recombinant GM-CSF (20 ng/ml), G-CSF (20 ng/ml), SCF (50 ng/ml), IL-3 (20 ng/ml), and IL-6 (10 ng/ml). Cells were plated at a concentration of 1×10^5 cells/ml in a 12-well plate. Vehicle (0.1% DMSO) or Compound A (2 μM) was added for up to 72 hours. All samples contained >85% AML blasts and were not sorted prior to performing experiments. Immunostaining and flow cytometry analyses were performed according to standard procedures. All antibodies were purchased from BD Biosciences. Single cell suspensions of bone marrow culture were subsequently analyzed on a D×P10 flow cytometer (Cytek). Bone marrow from AML patients were collected through voluntary patient participation at University of California, Los Angeles (Los Angeles, Calif., USA) and Stanford University (Palo Alto, Calif., USA) in compliance with the Institutional Review Board regulations of each institution.
# To test the effects of CREB inhibition on AML cells, four AML cell lines were treated with doses of Compound A ranging from 100 pM to 10 μM for 48 hours. […] KG-1 cells were less sensitive to Compound A and expressed lower levels of CREB compared to HL-60 cells (FIG. 2, panel A). CREB was overexpressed to determine whether sensitivity of KG-1 cells to Compound A could be increased. KG-1 cell lines in which CREB or CBP was overexpressed, or CREB was knocked down by shRNA, were generated (FIG. 2C). A KG-1 cell line expressing only GFP was used as a control. These cell lines were treated with a range of Compound A concentrations for 48 hours (FIG. 2D). Experiments were also performed to examine the efficacy of combining Compound A with cytarabine or daunorubicin, standard drugs used in AML therapy.
# Caspase-3 = Caspase-3 protease activity (ApoTarget kit); format: cell-based; set-up: unit of the concentration uncertain
# Excerpt: The ApoTarget Caspase-3 Protease Activity Kit (Invitrogen) was used per manufacturer's instructions.
# The balance between pro- and anti-apoptotic protein expression contributes to cell fate decisions. CREB regulates the expression of several anti-apoptotic proteins, including Bcl-2, Bcl-XL and Mcl-1. Bcl-2 expression in particular is known to mediate resistance to chemotherapy and influence clinical outcome in a number of cancer types, including AML. The ability of Compound A to cause apoptosis by disrupting the CREB-driven expression of these anti-apoptotic proteins was examined. In HL-60 cells treated with Compound A, apoptosis is induced in a dose- and time-dependent manner. […] Compound A elicited apoptosis through the intrinsic apoptosis pathway, with activation of Caspase-3 (FIG. 5, panel B) and detectable Caspase-9 cleavage (data not shown). Relative caspase-3 activity at 24 hours: 5.4±0.8 for etoposide, 1±0.78, 0.93±0.71, 1.02±0.67, 2.9±0.58, 5.1±0.63, 4.1±0.71 for 0, 1, 1.5, 2, 2.5 and 3 mM Compound A, respectively. Activity at 72 hours: 1.2±0.05 for etoposide, 1.0±0.02, 1.9±0.03, 3.7±0.04, 4.4±0.05, 2.1±0.03, 1.9±0.02 for 0, 1, 1.5, 2, 2.5 and 3 mM Compound A, respectively. The transcription of Bcl-2 decreased following 72 hours of 2 mM Compound A treatment (FIG. 5, panel C), and this was verified by Western blot analysis (FIG. 5, panel D). […] To confirm whether loss of Bcl-2 function alone is sufficient to induce apoptosis in AML cells, HL-60 cells were treated with the validated Bcl-2 inhibitor ABT-737 (50 to 200 nM). […] Bcl-2 levels are influenced by CREB expression in these AML cell lines (FIG. 11, panel C).
# [3] = test system: primary AML patient bone marrow samples; experiment: Primary AML patient bone marrow samples, Trypan blue exclusion assay; format: cell-based, human; conditions: 2 μM, 72 hours
# Experimental: as §1, with “Immunostaining and flow cytometry analyses were performed according to standard procedures. All antibodies were purchased from BD Biosciences.” left out, “Bone marrow from AML patients were collected through voluntary patient participation at University of California, Los Angeles (Los Angeles, Calif., USA) and Stanford University (Palo Alto, Calif., USA) in compliance with the Institutional Review Board regulations of each institution.” left out
# HL-60 cells [4] = experiment: Flow cytometry of apoptosis (c-PARP+, aqua amine+) in HL-60 cells; format: cell-based, human; conditions: Homo sapiens, 72 hours, 2 mM, read-out: cells apoptotic or non-viable
# Experimental: as §1, with “Immunostaining and flow cytometry analyses were performed according to standard procedures. All antibodies were purchased from BD Biosciences.” left out, “Bone marrow from AML patients were collected through voluntary patient participation at University of California, Los Angeles (Los Angeles, Calif., USA) and Stanford University (Palo Alto, Calif., USA) in compliance with the Institutional Review Board regulations of each institution.” left out
smiles,measurement,setting,value
"N#Cc1ccc(NC(=O)c2cc3ccccc3cc2O)cc1 [Compound A, N-(4-cyanophenyl)-3-hydroxy-2-naphthamide]","Myb-driven gene expression (SP3, FPR1, PRODH, SLC34A2)",[1],No changes in gene expression were observed
same,CREB target gene expression (qPCR),[1]; conditions as for RNA-Seq,consistently reduced CREB target gene expression
same,viability,HL-60 cells [2]; Compound A alone,87.4±7.3%
same,viability,HL-60 cells [2]; Compound A combined with ERK inhibitor,55.3±3.4%
same,viability,HL-60 cells [2]; Compound A combined with RSK inhibitor,49.5±2.3%
same,pIC50,KG-1 cells; KG-1 CBP OE,6.08
same,pIC50,KG-1 cells; KG-1 CREB KD,5.75
same,pIC50,KG-1 cells; KG-1 CREB OE,6.16
same,pIC50,KG-1 cells; KG-1 GFP control,5.98
same,relative caspase-3 activity,"Caspase-3; 24 hours, 1 (unit uncertain)",0.93±0.71
same,relative caspase-3 activity,"Caspase-3; 24 hours, 1.5 (unit uncertain)",1.02±0.67
same,relative caspase-3 activity,"Caspase-3; 24 hours, 2 (unit uncertain)",2.9±0.58
same,relative caspase-3 activity,"Caspase-3; 24 hours, 2.5 (unit uncertain)",5.1±0.63
same,relative caspase-3 activity,"Caspase-3; 24 hours, 3 (unit uncertain)",4.1±0.71
same,relative caspase-3 activity,"Caspase-3; 72 hours, 1 (unit uncertain)",1.9±0.03
same,relative caspase-3 activity,"Caspase-3; 72 hours, 1.5 (unit uncertain)",3.7±0.04
same,relative caspase-3 activity,"Caspase-3; 72 hours, 2 (unit uncertain)",4.4±0.05
same,relative caspase-3 activity,"Caspase-3; 72 hours, 2.5 (unit uncertain)",2.1±0.03
same,relative caspase-3 activity,"Caspase-3; 72 hours, 3 (unit uncertain)",1.9±0.02
same,decreased viable cell count,[3],a range of responsiveness
same,cytotoxicity at 2000 µM,HL-60 cells [4],> 95%
